Patent US9814696B2, “Use of coumarin derivatives for the preparation of drugs for treating skin diseases” (UNIVERSITE PIERRE ET MARIE CURIE (PARIS 6), priority 2011, dated 2017)
Where two headings read alike, the source gives them in different places.

What was measured:
KLK7 = KLK7 (Homo sapiens, UniProt P49862); test: KLK7 enzyme inhibition assay, fluorogenic substrate Suc-Leu-Leu-Val-Tyr-AMC; assay type: biochemical; conditions: for inhibition at 50 µM / IC50: 37° C., 15 min of incubation, pH 8; for selective activity against enzyme: KLK7: Table B, among KLK5, KLK7 and KLK14
Procedure: (§1) Kallikreins KLK5, KLK7 and KLK14 activities were determined by monitoring the hydrolysis of the appropriate fluorogenic substrate (λexc=355, λem=460 nm) for 15 min at 37° C. in the presence of the untreated kallikrein (control) or kallikrein that had been incubated with a test compound. Substrate and compounds were previously dissolved in DMSO, with the final solvent concentration kept constant at 2% (v/v) (KLK 5 and 14), and 4% (v/v) (KLK7). The composition of the activity buffers (pH 8.0) was 100 mM Tris-HCl, 150 mM NaCl, 0.01% (v/v) Tween 20 for the KLK5 assay, and 100 mM Tris-HCl, 1M NaCl, 0.01% (v/v) Tween 20 in the KLK 7 and 14 assays. The final concentrations were 0.6 nM (KLK5) and 100 μM (Boc-Val-Pro-Arg-AMC) (KLK5 assay), 8 nM (KLK7) and 40 μM (Suc-Leu-Leu-Val-Tyr-AMC, AMC: 7-amino-4-methyl-coumarin) (KLK7 assay), and 0.17 nM (KLK14) and 10 μM (Boc-Val-Pro-Arg-AMC) (KLK14 assay). Using the appropriate substrate, the coumarinic compounds (0.01-100 μM) were tested in duplicate for each inhibitor concentration to detect their inhibitory potential. The enzyme and the inhibitors were incubated for 15 min before the determination of the enzyme activity. Initial rates determined in control experiments (V0) were considered to be 100% of the peptidase activity; initial rates below 100% were considered to be inhibitions. The inhibitory activity of compounds was expressed as IC50 (inhibitor concentrations giving 50% inhibition). The values of IC50 were calculated by fitting the experimental data to the equation: % Inhibition=100×(1−Vi/V0)=100[I]0/(IC50+[I]0), or equation: % Inhibition=100[I]0^nH/(IC50^nH+[I]0^nH),nH is the Hill number.
(§2) The tests were realized at 37° C. after 15 min of incubation at pH 8.

[1] = test system: normal human keratinocytes; test: Neutral red uptake (NRU) cytotoxicity test / cell viability; assay type: cell-based; parameters: cytotoxicity, neutral red uptake test (FIG. 5): dose or concentration left out as unconfirmed; conditions: 48 h, human normal keratinocytes; for cytotoxicity, neutral red uptake test: 1 and 10 μM
Excerpt: The NRU cytotoxicity assay procedure is a cell survival/viability chemosensitivity assay based on the ability of viable cells to incorporate and bind neutral red (NR), a supravital dye. NR is a weak cationic dye that readily penetrates cell membranes by non-ionic diffusion and accumulates intracellularly in lysosomes. Alterations of the cell surface or the sensitive lysosomal membrane lead to lysosomal fragility and other changes that gradually become irreversible. Such changes caused by the action of xenobiotics result in a decreased uptake and binding of NR. It is thus possible to distinguish between viable, damaged, or dead cells, which is the basis of this assay. After treatment with the small-molecules inhibitors, NR uptake in cells will be measured by spectrophotometry at 540±10 nm.
Keratinocytes from healthy persons or patients with Netherton syndrome are seeded at the density of 4000 cells in 125 μL of medium per well in 96-well plates.
After seeding, cells are incubated for 48 hours in the following experimental conditions: 37° C.±1° C., 90%±5.0% humidity, and 5%±1% CO2/air. This incubation period allows for cell recovery and adherence and progression to exponential growth phase.
Prepare inhibitors solutions 2-fold more concentrated than desired. Add 125 μL of these solutions to the wells without changing or removing the medium (125 μL).
48 h hours after the beginning of the treatment, carefully remove the medium (containing the tested inhibitor) and rinse the cells very carefully with 250 μL pre-warmed PBS.
Add 250 μL NR medium and incubate (37° C.±1° C., 90%±5% humidity, and 5.0%±1% CO2/air) for 3±0.1 h. NR medium is the culture medium containing 33 μg/mL of NR. After incubation, remove the NR medium, and carefully rinse cells with 250 μL pre-warmed PBS.
Measure the absorption (within 60 minutes after adding NR Desorb solution) of the resulting colored solution at 540 nm±10 nm in a microtiter plate reader (spectrophotometer), using the blank as a reference.
A calculation of cell viability expressed as NRU is made for each concentration of the tested inhibitor by using the mean NRU of the three replicate values per each concentration. This value is compared with the mean NRU of all vehicle values. Relative cell viability is then expressed as percent of untreated vehicle control (DMSO).
Normal human keratinocytes were seeded in a 96-well tissue culture plate. At 20% of confluence, molecules were added in the culture medium and incubated for 48 h. Neutral red medium was added to every well for an incubation period of 3 h, then the dye was extracted with acidified ethanol solution. Data (FIGS. 2 and 3) represent the mean cell viability after treatment +/−SD compared to mean viability of cells treated with the vehicle only (DMSO). Data represent the mean of 5 individual experiments.

[2] = test system: keratinocytes from a Netherton syndrome patient (NSK); test: Expression of pro-allergic and inflammatory molecules (indirect KLK5 activity) in Netherton syndrome patient keratinocytes; assay type: cell-based, human; conditions: 72 h, relative to HPRT
Procedure: 250,000 keratinocytes from a Netherton syndrome patient (NSK) were seeded in 6 well plates in 2 mL of medium made of: (a) half of complete Green medium: (Dulbecco's Modified Eagle Media) 60%; Ham's F12 30%; FCS 10%; adenin […]; insulin 5 μg/mL; hydrocortisone 0.4 μg/mL; cholera toxin 10 nM; triiodothyronin 2 nM; human recombinant EGF 10 ng/mL; penicillin G/streptomycin 100 U/mL; (b) half of a basal medium (Epilife—Cascade Biologics).
When confluent, cells were washed 5 times with PBS and 2 mL of complete Green medium without FCS (fetal calf serum) were added per well.
Inhibitors were added in the culture medium 24 h after medium renewal.
350 μL of RLT lysis buffer (Mini Kit QIAGEN)+β-mercapto-ethanol (0.1%) were added per well to extract total RNA. The cell lysate was kept at −80° C. before RNA extraction (Mini Kit QIAGEN).
In this in cellulo test, KLK5 activity was evaluated by an indirect method. Indeed KLK5 induces TSLP (thymic stromal lymphopoietin), TNFα (tumor necrosis factor alpha) and IL-8 (interleukin 8) expression. If KLK5 activity is inhibited, the expression of these cytokines will be reduced.
The relative amount of TSLP, TNFα and IL-8 transcripts [relative to HPRT (hypoxanthine phosphoribosyltransferase 1) housekeeping gene] was compared between cells treated or not treated with the inhibitors. The ratio <<treated/not treated>> relative to housekeeping gene reflects KLK5 inhibition.
Their expression had also been studied even if their mechanism of induction is not known yet.
The effect of LP73 and CFL33 on the expression of the described pro-allergic and inflammatory cytokines was analyzed on keratinocytes from two different NS patients. Each experiment was performed twice (FIG. 4).

KLK5 = target: T1, KLK5 (Homo sapiens, UniProt Q9Y337); test: KLK5 enzyme inhibition assay, fluorogenic substrate Boc-Val-Pro-Arg-AMC; assay type: biochemical; conditions: for IC50: 37° C., 15 min of incubation, pH 8
T1 sequence (Q9Y337 23-293): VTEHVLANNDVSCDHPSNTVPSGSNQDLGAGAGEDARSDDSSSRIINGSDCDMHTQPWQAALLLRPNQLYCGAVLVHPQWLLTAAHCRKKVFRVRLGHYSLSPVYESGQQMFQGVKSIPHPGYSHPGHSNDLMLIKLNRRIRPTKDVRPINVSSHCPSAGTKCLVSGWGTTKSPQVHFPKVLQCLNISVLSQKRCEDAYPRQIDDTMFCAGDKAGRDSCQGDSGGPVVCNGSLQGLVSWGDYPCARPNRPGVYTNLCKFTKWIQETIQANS
Procedure: as §1, §2

KLK14 = target: T2, KLK14 (Homo sapiens, UniProt Q9P0G3); test: KLK14 enzyme inhibition assay, fluorogenic substrate Boc-Val-Pro-Arg-AMC; assay type: biochemical; conditions: 37° C., 15 min of incubation, pH 8
T2 sequence (Q9P0G3 25-251): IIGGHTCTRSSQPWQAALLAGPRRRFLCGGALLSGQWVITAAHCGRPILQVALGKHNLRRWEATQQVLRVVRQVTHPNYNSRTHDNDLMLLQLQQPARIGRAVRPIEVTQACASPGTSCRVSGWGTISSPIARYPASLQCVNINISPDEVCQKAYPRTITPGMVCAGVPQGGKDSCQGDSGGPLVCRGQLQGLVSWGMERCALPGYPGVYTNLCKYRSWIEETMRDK
Procedure: as §1, §2

[3] = test system: total protease activity of transgenic KLK5 mice skin section; test: In situ zymography on transgenic KLK5 mice skin section; assay type: biochemical; conditions: 5 μM
Procedure: FIG. 6 illustrates the effect of JFR9 compound (5 μM) efficacy on the total protease activity of transgenic KLK5 mice skin section, by in situ zymography.
The protease activity is shown with a gradient of fluorescence. The fluorescence intensity represents the cleavage efficiency of a casein substrate coupled to a FITC group.
JFR9 efficacy has been assayed on transgenic KLK5 mice skin section by in situ zymography (FIG. 6). These mice overexpress KLK5 and reproduce the phenotypic characteristics of Netherton syndrome.

KLK7, sequence (P49862 30-253): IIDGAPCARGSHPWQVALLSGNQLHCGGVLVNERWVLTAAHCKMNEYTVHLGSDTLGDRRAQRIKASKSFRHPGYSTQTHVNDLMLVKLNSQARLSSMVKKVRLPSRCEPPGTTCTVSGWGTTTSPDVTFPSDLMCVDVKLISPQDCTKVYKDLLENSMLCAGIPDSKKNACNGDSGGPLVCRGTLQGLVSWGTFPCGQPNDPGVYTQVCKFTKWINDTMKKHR

| SMILES | inhibition at 50 µM (KLK7) | selective activity against enzyme: KLK7 (KLK7) | melting point | cytotoxicity, neutral red uptake test [1] | expression of IL-8 ([2]; 1 μM) | expression of MDC ([2]; 1 μM) | expression of TARC ([2]; 1 μM) | other results |
| --- | --- | --- | --- | --- | --- | --- | --- | --- |
| O=C(Oc1ccc(Cl)cc1)c1cc2cc(CF)ccc2oc1=O [JFR7, 4-Chlorophenyl 6-fluoromethyl-2-oxo-2H-1-benzopyran-3-carboxylate] | 30% | KLK7 | 216 to 218 °C | – | – | – | – | – |
| O=C(Oc1cccc2ccccc12)c1cc2ccccc2oc1=O [JFR1, 1-Naphthyl 2-oxo-2H-1-benzopyran-3-carboxylate] | 53% | KLK7 | 159 to 160 °C | – | – | – | – | – |
| O=C(Oc1ccc2ccccc2c1)c1cc2ccccc2oc1=O [JFR2, 2-Naphthyl 2-oxo-2H-1-benzopyran-3-carboxylate] | 30% | KLK7 | 166 to 167 °C | – | – | – | – | – |
| O=C(Oc1cccc(Cl)c1Cl)c1cc2cc(CCl)ccc2oc1=O [LP73] | – | KLK7 | – | No noticeable cytotoxicity | significantly inhibited | significantly inhibited | significantly inhibited | IC50 (KLK7; Table A, read-out: IC50 (μM) KLK7): 0.063 ± 0.004 µM; expression of TNFα ([2]; 1 μM): significantly inhibited; expression of TSLP ([2]; 1 μM): significantly inhibited; expression of TARC ([2]; 10 μM): inhibited; expression of TSLP ([2]; 10 μM): inhibited |
| O=C(Oc1nccc2ccccc12)c1cc2ccccc2oc1=O [CFL33, Isoquinolin-1-yl 2-oxo-2H-1-benzopyran-3-carboxylate] | – | – | – | No noticeable cytotoxicity | significantly inhibited | significantly inhibited | significantly inhibited | IC50 (KLK5; Table A, read-out: IC50 (μM) KLK5): 7 ± 0.4 µM; selective activity against enzyme: KLK5 (KLK5; Table B, among KLK5, KLK7 and KLK14): KLK5; inhibition at 100 µM (KLK14; 100 μM): 61% |
| O=C(Oc1cccc(Cl)c1)c1cc2cc(CBr)ccc2oc1=O [JFR9, 3-Chlorophenyl 6-bromomethyl-2-oxo-2H-1-benzopyran-3-carboxylate] | – | KLK7 | – | – | – | – | – | IC50 (KLK5; Table A2, read-out: IC50 (nM) KLK5): 0.92 ± 0.07 µM; IC50 (KLK7; Table A2, read-out: IC50 (nM) KLK7): 0.0637 ± 0.0017 µM; IC50 (KLK14; Table A2, read-out: IC50 (nM) KLK14): 2900 ± 100 nM; cytotoxicity, neutral red uptake test (FIG. 5) [1]: No noticeable cytotoxicity; total protease activity of skin section (casein-FITC cleavage) [3]: decreased significantly |
